The values below come from patent US20240168030A1, “DIRECT FLUORESCENT GLYCAN LABELING” (BIO-TECHNE CORPORATION, priority 2019, published 2024).

Assay [1] addresses T1, ST6GalNAc2 (Homo sapiens, UniProt Q9UJ37).
T1 sequence (Q9UJ37 1-374): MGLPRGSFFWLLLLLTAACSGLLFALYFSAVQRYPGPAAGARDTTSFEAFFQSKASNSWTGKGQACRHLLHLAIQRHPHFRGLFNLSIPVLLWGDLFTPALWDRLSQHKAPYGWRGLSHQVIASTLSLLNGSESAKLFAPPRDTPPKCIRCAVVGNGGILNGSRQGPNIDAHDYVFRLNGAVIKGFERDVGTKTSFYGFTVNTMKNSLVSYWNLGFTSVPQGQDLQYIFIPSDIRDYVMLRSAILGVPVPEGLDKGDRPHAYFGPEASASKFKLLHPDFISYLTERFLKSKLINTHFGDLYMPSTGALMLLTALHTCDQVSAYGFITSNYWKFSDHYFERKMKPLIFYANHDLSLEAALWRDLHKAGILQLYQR
Kind of assay: DFGL with fluorophore-conjugated sialic acid by ST6GalNAc2. The assay is classed as biochemical. The arrangement: key: +++: indicated by + and − signs only; ++: indicated by + and − signs only; indicated by + and − signs only; indicated by + and − signs only. As to conditions: fluorophore-conjugated sialic acid donor; acceptor O-GalNAc, sialylation on terminal Gal is flexible; FIG. 2.

In assay [2] the target is T2, ST3Gal1 (Homo sapiens, UniProt Q11201).
T2 construct: purchased R&D Systems (Bio-Techne, Minneapolis, MN)
T2 sequence (Q11201 1-340): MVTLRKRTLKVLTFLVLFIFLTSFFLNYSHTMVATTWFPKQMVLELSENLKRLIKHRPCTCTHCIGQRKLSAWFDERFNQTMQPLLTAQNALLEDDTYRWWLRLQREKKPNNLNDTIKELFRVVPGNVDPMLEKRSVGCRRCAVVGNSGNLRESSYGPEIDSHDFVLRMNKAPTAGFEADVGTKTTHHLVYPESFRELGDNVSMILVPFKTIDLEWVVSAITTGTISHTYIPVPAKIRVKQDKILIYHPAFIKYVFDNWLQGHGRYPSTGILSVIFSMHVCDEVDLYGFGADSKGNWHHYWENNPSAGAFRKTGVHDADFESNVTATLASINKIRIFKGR
Description: Direct fluorescent glycan labeling (DFGL) with fluorophore-conjugated sialic acid by ST3Gal1. The assay is classed as biochemical. The arrangement: key to Relative tolerance of the fluorophore by ST3Gal1: +++: indicated by + and − signs only; ++: indicated by + and − signs only; indicated by + and − signs only; indicated by + and − signs only. As to conditions: fluorophore-conjugated sialic acid donor; acceptor Gal of Core-1 O-glycan; fluorescence intensity of labeled fetuin or asialofetuin in FIG. 2.

The target of assay [3] is T3, ST6GalNAc4 (Homo sapiens, UniProt Q9H4F1).
T3 construct: purchased R&D Systems (Bio-Techne, Minneapolis, MN)
T3 sequence (Q9H4F1 1-302): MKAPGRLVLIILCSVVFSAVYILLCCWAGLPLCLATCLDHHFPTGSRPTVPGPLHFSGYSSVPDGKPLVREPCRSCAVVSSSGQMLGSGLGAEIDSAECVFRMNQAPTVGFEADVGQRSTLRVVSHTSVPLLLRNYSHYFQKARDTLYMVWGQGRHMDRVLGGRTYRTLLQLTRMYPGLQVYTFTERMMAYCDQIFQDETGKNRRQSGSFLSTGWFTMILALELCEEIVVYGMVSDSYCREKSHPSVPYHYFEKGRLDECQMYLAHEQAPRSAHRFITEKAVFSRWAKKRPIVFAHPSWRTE
Description: DFGL with fluorophore-conjugated sialic acid by ST6GalNAc4. The assay is classed as biochemical. The arrangement: key to Relative tolerance of the fluorophore by ST6GalNAc4: +++: indicated by + and − signs only; ++: indicated by + and − signs only; indicated by + and − signs only; indicated by + and − signs only. As to conditions: for Relative tolerance of the fluorophore by ST6GalNAc4: fluorophore-conjugated sialic acid donor, acceptor O-GalNAc, with sialylated terminal Gal, FIG. 2.

Assay [4] deals with T4, ST3Gal4 (Homo sapiens, UniProt Q11206).
T4 construct: purchased R&D Systems (Bio-Techne, Minneapolis, MN)
T4 sequence (Q11206 1-333): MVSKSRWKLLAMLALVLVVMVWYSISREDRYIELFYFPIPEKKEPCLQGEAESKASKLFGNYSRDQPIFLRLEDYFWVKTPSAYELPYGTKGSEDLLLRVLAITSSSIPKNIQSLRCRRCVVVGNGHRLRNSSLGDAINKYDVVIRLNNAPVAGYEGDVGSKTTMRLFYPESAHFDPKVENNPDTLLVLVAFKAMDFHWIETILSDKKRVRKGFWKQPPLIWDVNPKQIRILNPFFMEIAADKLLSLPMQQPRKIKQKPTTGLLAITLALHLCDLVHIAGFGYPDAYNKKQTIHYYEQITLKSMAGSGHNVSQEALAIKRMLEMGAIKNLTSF
Description: DFGL with fluorophore-conjugated sialic acid by ST3Gal4. As to conditions: fluorophore-conjugated sialic acid donor; acceptor Gal of N-glycan; fluorescence intensity of labeled fetuin or asialofetuin in FIG. 2. The arrangement: key: +++: indicated by + and − signs only; ++: indicated by + and − signs only; indicated by + and − signs only; indicated by + and − signs only. The assay is classed as biochemical.

The target of assay [5] is T5, ST6GalNAc1 (Homo sapiens, UniProt Q9NSC7).
T5 construct: purchased R&D Systems (Bio-Techne, Minneapolis, MN)
T5 sequence (Q9NSC7 1-600): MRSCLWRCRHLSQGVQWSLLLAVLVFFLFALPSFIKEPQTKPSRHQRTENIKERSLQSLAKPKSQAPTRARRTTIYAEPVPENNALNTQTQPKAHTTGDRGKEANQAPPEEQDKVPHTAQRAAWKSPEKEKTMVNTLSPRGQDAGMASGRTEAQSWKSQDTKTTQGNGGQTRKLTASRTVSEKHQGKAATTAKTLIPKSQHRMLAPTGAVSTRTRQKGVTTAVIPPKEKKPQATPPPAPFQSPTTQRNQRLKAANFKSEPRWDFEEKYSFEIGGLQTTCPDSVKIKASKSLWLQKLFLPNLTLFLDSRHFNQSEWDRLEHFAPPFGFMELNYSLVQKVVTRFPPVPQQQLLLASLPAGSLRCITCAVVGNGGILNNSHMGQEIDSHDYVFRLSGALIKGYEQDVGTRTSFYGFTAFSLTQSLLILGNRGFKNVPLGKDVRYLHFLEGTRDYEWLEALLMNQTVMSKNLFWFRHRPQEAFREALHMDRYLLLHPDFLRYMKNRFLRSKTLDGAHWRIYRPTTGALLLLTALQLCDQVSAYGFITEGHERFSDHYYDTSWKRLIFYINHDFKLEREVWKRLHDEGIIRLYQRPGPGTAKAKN
Kind of assay: DFGL with fluorophore-conjugated sialic acid by ST6GalNAc1. The assay is classed as biochemical. The arrangement: key: +++: indicated by + and − signs only; ++: indicated by + and − signs only; indicated by + and − signs only; indicated by + and − signs only. As to conditions: fluorophore-conjugated sialic acid donor; acceptor O-GalNAc, sialylation on terminal Gal is flexible; FIG. 2.

The target of assay [6] is T6, ST6Gal1 (Homo sapiens, UniProt P15907).
T6 construct: purchased R&D Systems (Bio-Techne, Minneapolis, MN)
T6 sequence (P15907 1-406): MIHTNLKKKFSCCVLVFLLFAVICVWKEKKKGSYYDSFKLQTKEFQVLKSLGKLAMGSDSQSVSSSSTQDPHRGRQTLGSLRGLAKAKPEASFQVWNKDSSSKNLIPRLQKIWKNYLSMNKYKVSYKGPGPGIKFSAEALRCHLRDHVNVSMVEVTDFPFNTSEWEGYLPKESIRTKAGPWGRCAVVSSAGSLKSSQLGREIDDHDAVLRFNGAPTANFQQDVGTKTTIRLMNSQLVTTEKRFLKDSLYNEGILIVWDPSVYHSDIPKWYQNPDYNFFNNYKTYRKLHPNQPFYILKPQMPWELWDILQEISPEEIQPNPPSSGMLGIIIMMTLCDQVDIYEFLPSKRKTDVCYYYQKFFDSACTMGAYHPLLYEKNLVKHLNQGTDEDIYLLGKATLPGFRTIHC
Kind of assay: DFGL with fluorophore-conjugated sialic acid by ST6Gal1. The assay is classed as biochemical. The arrangement: key to Relative tolerance of the fluorophore by ST6Gal1: +++: indicated by + and − signs only; ++: indicated by + and − signs only; indicated by + and − signs only; indicated by + and − signs only. As to conditions: fluorophore-conjugated sialic acid donor; acceptor Gal of N-glycan; fluorescence intensity of labeled fetuin or asialofetuin in FIG. 2.

Assay [7] concerns the target T7, ST3Gal2 (Homo sapiens, UniProt Q16842).
T7 construct: purchased R&D Systems (Bio-Techne, Minneapolis, MN)
T7 sequence (Q16842 1-350): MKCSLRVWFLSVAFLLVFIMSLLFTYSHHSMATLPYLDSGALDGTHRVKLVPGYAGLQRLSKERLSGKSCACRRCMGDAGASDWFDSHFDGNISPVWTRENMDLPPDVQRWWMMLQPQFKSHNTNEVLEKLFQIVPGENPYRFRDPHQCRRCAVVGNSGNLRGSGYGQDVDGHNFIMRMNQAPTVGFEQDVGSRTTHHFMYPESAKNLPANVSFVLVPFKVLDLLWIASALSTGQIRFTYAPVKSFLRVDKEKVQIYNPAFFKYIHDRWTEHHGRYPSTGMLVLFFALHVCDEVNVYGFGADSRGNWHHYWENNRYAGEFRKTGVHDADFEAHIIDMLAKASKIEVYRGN
Kind of assay: DFGL with fluorophore-conjugated sialic acid by ST3Gal2. As to conditions: fluorophore-conjugated sialic acid donor; acceptor Gal of Core-1 O-glycan; fluorescence intensity of labeled fetuin or asialofetuin in FIG. 2. The assay is classed as biochemical. The arrangement: key: +++: indicated by + and − signs only; ++: indicated by + and − signs only; indicated by + and − signs only; indicated by + and − signs only.

Assay [8] relates to fetuin and asialofetuin. Kind of assay: PNGase F and FUCA1 treatment of labeled fetuin and asialofetuin. The assay is classed as biochemical, bovine. As to conditions: Cy5, FIG. 18B. The protocol: FIG. 18A-FIG. 18B show characterization of the labeled glycans on fetuin (Fet) and asialofetuin (AF) with PNGase F and FUCA1. FIG. 18A. PNGase F treatment of the labeled samples. […] Fet was labeled by FUT7 (F7) with Alexa Fluor® 488 (blue). Labeled samples were then treated with PNGase F to release the glycans. FIG. 18B. Effect of FUCA1 on the labeling. Samples without or with FUCA1 treatment were labeled by the indicated enzymes with Cy5. All samples were separated on 15% SDS-PAGE and imaged by silver staining, TCE staining and fluorescent imaging as indicated. M, Western blot molecular marker.
For a typical labeling reaction, 1 μg to 5 μg target protein was mixed with 0.2 nmol fluorophore-conjugated GDP-fucose and 0.2 μg of a fucosyltransferase in 30μL 25 mM Tris pH 7.5, 10 mM MnCl2. The mixture was incubated at 37° C. for 30 minutes. […] To release labeled glycans from a glycoprotein, the sample was first denatured by heating at 95° C. for two minutes in the presence of 0.5% SDS and 80 mM β-mercaptoethanol and then renatured with 1% Triton X-100, and finally treated with PNGase F at 10:1 mass ratio at 37° C. for 20 minutes. To release glycans from antibody, a sample was directly treated with Endo S at 10:1 mass ratio at 37° C. for 20 minutes. All samples were separated by sodium dodecyl sulfate—polyacrylamide gel electrophoresis (SDS-PAGE) at volts/cm. […]

On to “cytidine monophosphate activated Alexa-Fluor®488-conjugated sialic acid [CMP-AF488-SA]”, for which, in assay [1], the “Relative tolerance of the fluorophore by ST6GalNAc2” value is given as “−”. The “Relative tolerance of the fluorophore by ST3Gal1” value in assay [2] is “+”. Further, the “Relative tolerance of the fluorophore by ST6GalNAc4” value in assay [3] is recorded as “+”. In addition, in assay [4], the “Relative tolerance of the fluorophore by ST3Gal4” value is “+”. Also, the “Relative tolerance of the fluorophore by ST6GalNAc1” value in assay [5] is listed as “++”. Besides, the “Relative tolerance of the fluorophore by ST6Gal1” value in assay [6] was “+++”. Moreover, in assay [7], the “Relative tolerance of the fluorophore by ST3Gal2” value is “+++”.

For the molecule “cytidine monophosphate activated Alexa-Fluor® 555-conjugated sialic acid [CMP-AF555-SA]”, in assay [1], the “Relative tolerance of the fluorophore by ST6GalNAc2” value is “+”. The “Relative tolerance of the fluorophore by ST3Gal1” value in assay [2] is listed as “++”. Further, the “Fluorophore preference of ST6GalNAc4” value in assay [3] (Alexa Fluor® 555 over Cy5, FIG. 2) is “strong preference”. In addition, in assay [3], the “Relative tolerance of the fluorophore by ST6GalNAc4” value is recorded as “+++”. Also, the “Relative tolerance of the fluorophore by ST3Gal4” value in assay [4] is listed as “++”. In addition, the “Relative tolerance of the fluorophore by ST6GalNAc1” value in assay [5] is on record as “++”. Besides, the “Relative tolerance of the fluorophore by ST6Gal1” value in assay [6] is listed as “++”. In addition, the “Relative tolerance of the fluorophore by ST3Gal2” value in assay [7] was “+++”.

B1: FUCA1: a lysosomal enzyme that hydrolyze α-fucose residues from glycans (protein, UniProt P04066 32-466, looked up)
Tissue alpha-L-fucosidase: QPPRRYTPDWPSLDSRPLPAWFDEAKFGVFIHWGVFSVPAWGSEWFWWHWQGEGRPQYQRFMRDNYPPGFSYADFGPQFTARFFHPEEWADLFQAAGAKYVVLTTKHHEGFTNWPSPVSWNWNSKDVGPHRDLVGELGTALRKRNIRYGLYHSLLEWFHPLYLLDKKNGFKTQHFVSAKTMPELYDLVNSYKPDLIWSDGEWECPDTYWNSTNFLSWLYNDSPVKDEVVVNDRWGQNCSCHHGGYYNCEDKFKPQSLPDHKWEMCTSIDKFSWGYRRDMALSDVTEESEIISELVQTVSLGGNYLLNIGPTKDGLIVPIFQERLLAVGKWLSINGEAIYASKPWRVQWEKNTTSVWYTSKGSAVYAIFLHWPENGVLNLESPITTSTTKITMLGIQGDLKWSTDPDKGLFISLPQLPPSAVPAEFAWTIKLTGVK
On to B1, for which the “Change of labeling on FUT7 labeled fetuin after the treatment” value in assay [8] is listed as “two-fold increase”.
